Tests used:
RORγ LBD = RORγ LBD (Homo sapiens (Human), UniProt P51449); assay: ROR gamma radio-ligand binding assay (3H 25-Hydroxycholesterol competitive displacement, dextran charcoal method); details: for IC50: in range
Description: Gene corresponding to the ligand binding domain of RORγ (247-497 amino acids) was sub-cloned into pGEX4T1 vector. Transformants of E. coli BL21 (DE3) containing pGEX4T1-RORγ (247-497) were grown to an OD of 0.8 at 37° C. and induced with 0.5 mM isopropyl-β-D-thiogalactopyranoside (IPTG) for 18 hours at 18° C. Cells were harvested and resuspended in 20 mM Tris-HCl (pH 8.5), 0.3 M NaCl, 10% Glycerol, 2 mM β-Me (β-Mercaptoethanol), 2 mM CHAPS, protease inhibitors, 0.6 mM PMSF and Lysozyme. Supernatant of lysate was passed through glutathione sepharose 4B affinity beads (GE health care) pre-equilibrated with 20 mM Tris-HCl (pH 8.5), 0.3 M NaCl, 10% Glycerol, 2 mM β-Me. RORγ was eluted using a gradient of reduced glutathione (3-20 mM). Fractions containing RORγ protein were pooled, concentrated and passed through Superdex 75 gel filtration (GE health care) column equilibrated with 20 mM Na-phosphate pH 8.0, 0.2 M NaCl, 10% glycerol. The peak fractions from gel filtration column were pooled and stored at −80° C. for Binding assay.
ROR gamma radioligand binding was performed using ^3H 25-Hydroxycholesterol in a competitive displacement assay using dextran charcoal method. Using 5 nM ^3H 25-Hydroxycholesterol with 300 ng RORγ LBD (in house expressed in E. coli) along with the compound were incubated in the binding buffer (50 mM HEPES, pH 7.5, 150 mM NaCl, 0.01% BSA and 5 mM MgCl2) for 30 min at room temperature. Then dextran-charcoal mixture (0.5% charcoal: 0.05% dextran) was used for separation and the supernatant was read on the Perkin Elmer Trilux Microbeta counter. Dose response curves were generated for 10 compound concentrations using GraphPad Prism software Version 5 (San Diego, Calif., USA) using non-linear regression curve fit for sigmoidal dose response (variable slope).

[1] = target: ROR gamma ligand binding domain (Homo sapiens (Human), UniProt P51449); assay: ROR gamma luciferase reporter assay (GAL4-ROR gamma LBD, HEK293 cells); type: cell-based; details: 48 hours treatment, read-out: RORγ luciferase Reporter assay: IC50 (nM) (in range)
Chain of ROR gamma ligand binding domain (P51449 269-508): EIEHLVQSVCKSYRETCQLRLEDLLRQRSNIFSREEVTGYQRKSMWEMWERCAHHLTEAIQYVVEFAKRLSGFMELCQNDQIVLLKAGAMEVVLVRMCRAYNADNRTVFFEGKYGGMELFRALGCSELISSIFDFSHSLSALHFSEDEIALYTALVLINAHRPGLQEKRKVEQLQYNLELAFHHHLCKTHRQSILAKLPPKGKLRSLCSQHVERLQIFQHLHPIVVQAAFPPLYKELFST
Description: The Ligand Binding Domain (LBD) of ROR gamma was cloned into pFN26A (BIND) hRluc-neo Flexi vector (Promega) which expresses a fusion protein comprised of a DNA binding domain of the yeast GAL4 gene, a linker segment and ROR gamma ligand binding domain. For the reporter assay 0.02×10^6 HEK293 cells were seeded per well in a 96 well plate in complete media and incubated overnight in an incubator with 5% CO2 at 37° C. before transfection. Cells were then co-transfected with pFN26A hRluc-neo Flexi vector containing the LBD of ROR gamma and pGL4.35 [luc2P/9XGAL4 UAS/Hygro] Vector (Promega) in low serum media. Post transfection and recovery, cells were treated with the test compounds for 48 hours. The assay was terminated using the Bright-Glo Luciferase assay system from Promega and the Luminescence was measured using a luminescence reader. The luminescence values were used to calculate the potency of the compounds.

Chain of RORγ LBD (P51449 268-518): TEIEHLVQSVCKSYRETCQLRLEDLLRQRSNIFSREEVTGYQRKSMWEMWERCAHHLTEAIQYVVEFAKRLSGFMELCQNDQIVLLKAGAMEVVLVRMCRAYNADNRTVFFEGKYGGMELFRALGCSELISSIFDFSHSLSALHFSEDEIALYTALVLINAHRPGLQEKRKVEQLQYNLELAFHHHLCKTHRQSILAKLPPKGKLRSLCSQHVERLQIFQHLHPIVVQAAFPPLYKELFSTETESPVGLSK

IC50 [1] | Compound | other results
100 to 500 nM | CCS(=O)(=O)c1ccc(CC(=O)Nc2cc(C)c3c(n2)CCC(C)(c2nccn4ccnc24)C3=O)cc1 (stereo not drawn) [Compound 26, 2-(4-(ethylsulfonyl)phenyl)-N-(6-(imidazo[1,2-a]pyrazin-8-yl)-4,6-dimethyl-5-oxo-5,6,7,8-tetrahydroquinolin-2-yl)acetamide] | inhibition at 1 µM (RORγ LBD; 1 μM compound): 65%; inhibition at 10 µM (RORγ LBD; 10 μM compound): 99%; IC50 (RORγ LBD): > 0.3 µM
< 100 nM | CCS(=O)(=O)c1ccc(CC(=O)Nc2ccc3c(n2)CCC(C)(c2nccn4cccc24)C3=O)cc1 (stereo not drawn) [Compound 15, 2-(4-(ethylsulfonyl)phenyl)-N-(6-methyl-5-oxo-6-(pyrrolo[1,2-a]pyrazin-1-yl)-5,6,7,8-tetrahydroquinolin-2-yl)acetamide] | inhibition at 1 µM (RORγ LBD; 1 μM compound): 95%; inhibition at 10 µM (RORγ LBD; 10 μM compound): 92%; IC50 (RORγ LBD): < 0.15 µM
100 to 500 nM | CCS(=O)(=O)c1ccc(CC(=O)Nc2ccc3c(n2)CCC(C)(c2ncc(Cl)n4ccnc24)C3=O)cc1 (stereo not drawn) [Compound 92, N-(6-(5-chloroimidazo[1,2-a]pyrazin-8-yl)-6-methyl-5-oxo-5,6,7,8-tetrahydroquinolin-2-yl)-2-(4-(ethylsulfonyl)phenyl)acetamide] | inhibition at 1 µM (RORγ LBD; 1 μM compound): 96%; inhibition at 10 µM (RORγ LBD; 10 μM compound): 80%; IC50 (RORγ LBD): < 0.15 µM
> 500 nM | CCC1(c2nccn3ccnc23)CCc2nc(NC(=O)Cc3ccc(S(=O)(=O)CC)cc3)ccc2C1=O (stereo not drawn) [Compound 14, N-(6-ethyl-6-(imidazo[1,2-a]pyrazin-8-yl)-5-oxo-5,6,7,8-tetrahydroquinolin-2-yl)-2-(4-(ethylsulfonyl)phenyl)acetamide] | inhibition at 1 µM (RORγ LBD; 1 μM compound): 0%; inhibition at 10 µM (RORγ LBD; 10 μM compound): 26%
100 to 500 nM | CCS(=O)(=O)c1ccc(CC(=O)Nc2ccc3c(n2)CCC(C)(c2cc(C)nc(C)n2)C3=O)cc1 (single isomer, unassigned) [compound 104, N-(6-(2,6-dimethylpyrimidin-4-yl)-6-methyl-5-oxo-5,6,7,8-tetrahydroquinolin-2-yl)-2-(4-(ethylsulfonyl)phenyl)acetamide] | RORγ ligand binding assay: % inhibition @1 μM (RORγ LBD; 1 μM compound): 94%; RORγ ligand binding assay: % inhibition @ 10 μM (RORγ LBD; 10 μM compound): 88%; IC50 (RORγ LBD): < 0.15 µM
100 to 500 nM | COc1ccc(C2(C)CCc3nc(NC(=O)Cc4ccc(S(C)(=O)=O)cc4)cc(C)c3C2=O)nn1 (stereo not drawn) [Compound 35, N-(6-(6-methoxypyridazin-3-yl)-4,6-dimethyl-5-oxo-5,6,7,8-tetrahydroquinolin-2-yl)-2-(4-(methylsulfonyl)phenyl)acetamide] | inhibition at 1 µM (RORγ LBD; 1 μM compound): 80%; inhibition at 10 µM (RORγ LBD; 10 μM compound): 98%; IC50 (RORγ LBD): 0.15 to 0.3 µM
< 100 nM | CCS(=O)(=O)c1ccc(CC(=O)Nc2ccc3c(n2)CCC(C)(c2nccn4c(C)cnc24)C3=O)cc1 (single isomer, unassigned) [compound 113, 2-(4-(ethylsulfonyl)phenyl)-N-(6-methyl-6-(3-methylimidazo[1,2-a]pyrazin-8-yl)-5-oxo-5,6,7,8-tetrahydroquinolin-2-yl)acetamide] | 
< 100 nM | CCS(=O)(=O)c1ccc(CC(=O)Nc2ccc3c(n2)CC(C)C(C)(c2cc(C)nc(C)n2)C3=O)cc1 (stereo not drawn) [Compound 81, N-(6-(2,6-dimethylpyrimidin-4-yl)-6,7-dimethyl-5-oxo-5,6,7,8-tetrahydroquinolin-2-yl)-2-(4-(ethylsulfonyl)phenyl)acetamide] | 
100 to 500 nM | CCS(=O)(=O)c1ccc(CC(=O)Nc2cc(C)c3c(n2)CCC(C)(c2ccc4nccn4n2)C3=O)cc1 (stereo not drawn) [Compound 77, 2-(4-(ethylsulfonyl)phenyl)-N-(6-(imidazo[1,2-b]pyridazin-6-yl)-4,6-dimethyl-5-oxo-5,6,7,8-tetrahydroquinolin-2-yl)acetamide] | 
100 to 500 nM | CCS(=O)(=O)c1ccc(CC(=O)Nc2cc3c(cn2)C(=O)C(C)(c2cc(C)nc(C)n2)CC3)cc1 (stereo not drawn) [Compound 83, N-(7-(2,6-dimethylpyrimidin-4-yl)-7-methyl-8-oxo-5,6,7,8-tetrahydroisoquinolin-3-yl)-2-(4-(ethylsulfonyl)phenyl)acetamide] | 
> 500 nM | CCS(=O)(=O)c1ccc(CNC(=O)c2ccc3c(n2)CCC(C)(c2cc(C)nc(C)n2)C3=O)cc1 (single isomer, unassigned) [compound 126, 6-(2,6-dimethylpyrimidin-4-yl)-N-(4-(ethylsulfonyl)benzyl)-6-methyl-5-oxo-5,6,7,8-tetrahydroquinoline-2-carboxamide] | 
100 to 500 nM | CCS(=O)(=O)c1ccc(CC(=O)Nc2ccc3c(n2)CCC(C)(c2cnc(C(C)C)cn2)C3=O)cc1 (stereo not drawn) [Compound 60, 2-(4-(ethylsulfonyl)phenyl)-N-(6-(5-isopropylpyrazin-2-yl)-6-methyl-5-oxo-5,6,7,8-tetrahydroquinolin-2-yl)acetamide] | 
> 500 nM | CCS(=O)(=O)c1ccc(CC(=O)Nc2cc(C)c3c(n2)CCC(C)(c2ccc(C(F)(F)F)nn2)C3=O)cc1 (stereo not drawn) [Compound 53, N-(4,6-dimethyl-5-oxo-6-(6-(trifluoromethyl)pyridazin-3-yl)-5,6,7,8-tetrahydroquinolin-2-yl)-2-(4-(ethylsulfonyl)phenyl)acetamide] | 
100 to 500 nM | CCS(=O)(=O)c1ccc(CC(=O)Nc2ccc3c(n2)CCC(C)(c2cc(C)nc(C)n2)C3=O)nc1 (single isomer, unassigned) [compound 124, N-(6-(2,6-dimethylpyrimidin-4-yl)-6-methyl-5-oxo-5,6,7,8-tetrahydroquinolin-2-yl)-2-(5-(ethylsulfonyl)pyridin-2-yl)acetamide] | 
100 to 500 nM | CCS(=O)(=O)c1ccc(CC(=O)Nc2ccc3c(n2)CCC(C)(c2cc(C)nc(C(F)(F)F)n2)C3=O)cc1 (stereo not drawn) [Compound 78, 2-(4-(ethylsulfonyl)phenyl)-N-(6-methyl-6-(6-methyl-2-(trifluoromethyl)-pyrimidin-4-yl)-5-oxo-5,6,7,8-tetrahydroquinolin-2-yl)acetamide] | 
> 500 nM | CCS(=O)(=O)c1ccc(CC(=O)Nc2ccc3c(n2)CCC(C)(c2nccn4c(C)cnc24)C3=O)cc1 (single isomer, unassigned) [compound 114, 2-(4-(ethylsulfonyl)phenyl)-N-(6-methyl-6-(3-methylimidazo[1,2-a]pyrazin-8-yl)-5-oxo-5,6,7,8-tetrahydroquinolin-2-yl)acetamide] | 
> 500 nM | CCS(=O)(=O)c1ccc(CC(=O)Nc2cc(C)c3c(n2)CCC(C)(c2cc(OC)cnn2)C3=O)cc1 (stereo not drawn) [Compound 73, 2-(4-(ethylsulfonyl)phenyl)-N-(6-(5-methoxypyridazin-3-yl)-4,6-dimethyl-5-oxo-5,6,7,8-tetrahydroquinolin-2-yl)acetamide] | 
> 500 nM | CCS(=O)(=O)c1ccc(CC(=O)Nc2ccc3c(n2)CCC(C)(c2nc(C)cn4ccnc24)C3=O)cc1 (single isomer, unassigned) [compound 117, 2-(4-(ethylsulfonyl)phenyl)-N-(6-methyl-6-(6-methylimidazo[1,2-a]pyrazin-8-yl)-5-oxo-5,6,7,8-tetrahydroquinolin-2-yl)acetamide] | 
> 500 nM | CCS(=O)(=O)c1ccc(CC(=O)Nc2cc(C)c3c(n2)CCC(C)(c2ccc(OC)[n+]([O-])n2)C3=O)cc1 (stereo not drawn) [Compound 94, 3-(2-(2-(4-(ethylsulfonyl)phenyl)acetamido)-4,6-dimethyl-5-oxo-5,6,7,8-tetrahydroquinolin-6-yl)-6-methoxypyridazine 1-oxide] | 
< 100 nM | CCS(=O)(=O)c1ccc(CC(=O)Nc2ccc3c(n2)CCC(C)(c2nc(C)cn4cc(C)nc24)C3=O)cc1 (stereo not drawn) [Compound 51, N-(6-(2,6-dimethylimidazo[1,2-a]pyrazin-8-yl)-6-methyl-5-oxo-5,6,7,8-tetrahydroquinolin-2-yl)-2-(4-(ethylsulfonyl)phenyl)acetamide] | 
< 100 nM | CCS(=O)(=O)c1ccc(CC(=O)Nc2ccc3c(n2)CCC(C)(c2nccn4cc(C(F)(F)F)nc24)C3=O)cc1 (stereo not drawn) [Compound 72, 2-(4-(ethylsulfonyl)phenyl)-N-(6-methyl-5-oxo-6-(2-(trifluoromethyl)-imidazo[1,2-a]pyrazin-8-yl)-5,6,7,8-tetrahydroquinolin-2-yl)acetamide] | 
100 to 500 nM | CCS(=O)(=O)c1ccc(CC(=O)Nc2ccc3c(n2)CCC(C)(c2nccn4c(C5CC5)cnc24)C3=O)cc1 (stereo not drawn) [Compound 71, N-(6-(3-cyclopropylimidazo[1,2-a]pyrazin-8-yl)-6-methyl-5-oxo-5,6,7,8-tetrahydroquinolin-2-yl)-2-(4-(ethylsulfonyl)phenyl)acetamide] | 

Reference: patent publication US11229636B2, “Substituted tetrahydroquinolinone compounds as ROR gamma modulators” (Aurigene Discovery Technologies Limited, priority 2015, dated 2022)
